Tested on: HSSY-II tumor spheroid viability
Assay: Anticancer human tumor HSSY-II cell line growth inhibition;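 note: spheroids exposed to compounds for seven days before reading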;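 for viability, T/C: percent of DMSO vehicle control viability so 100% = untreated level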
Details: spheroids with HUVEC and MSC; for viability, T/C: stronger effect = lower value
In short: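 Single agents and combinations were tested on spheroids built from tumor cells plus HUVEC and hMSC, at half-log dilutions starting at or near clinical Cmax, else 10 microM; final DMSO 0.25% (v/v).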

[1] = curve of first compound, second compound 1 µM
[2] = curve of first compound, second compound 3.16 µM
[3] = curve of first compound, second compound 10 µM
[4] = curve of first compound, second compound 31.6 µM
[5] = curve of first compound, second compound 100 µM
[6] = second compound 1 µM, first compound 0.0316 µM
[7] = second compound 1 µM, first compound 0.1 µM
[8] = second compound 1 µM, first compound 0.316 µM
[9] = second compound 1 µM, first compound 1 µM
[10] = second compound 1 µM, first compound 3.16 µM
[11] = second compound 1 µM, first compound 10 µM
[12] = second compound 3.16 µM, first compound 0.0316 µM
[13] = second compound 3.16 µM, first compound 0.1 µM
[14] = second compound 3.16 µM, first compound 0.316 µM
[15] = second compound 3.16 µM, first compound 1 µM
[16] = second compound 3.16 µM, first compound 3.16 µM
[17] = second compound 3.16 µM, first compound 10 µM
[18] = second compound 10 µM, first compound 0.0316 µM
[19] = second compound 10 µM, first compound 0.1 µM
[20] = second compound 10 µM, first compound 0.316 µM
[21] = second compound 10 µM, first compound 1 µM
[22] = second compound 10 µM, first compound 3.16 µM
[23] = second compound 10 µM, first compound 10 µM
[24] = second compound 31.6 µM, first compound 0.0316 µM
[25] = second compound 31.6 µM, first compound 0.1 µM
[26] = second compound 31.6 µM, first compound 0.316 µM
[27] = second compound 31.6 µM, first compound 1 µM
[28] = second compound 31.6 µM, first compound 3.16 µM
[29] = second compound 31.6 µM, first compound 10 µM
[30] = second compound 100 µM, first compound 0.0316 µM
[31] = second compound 100 µM, first compound 0.1 µM
[32] = second compound 100 µM, first compound 0.316 µM
[33] = second compound 100 µM, first compound 1 µM
[34] = second compound 100 µM, first compound 3.16 µM
[35] = second compound 100 µM, first compound 10 µM

Compound	IC50 [1]	IC50 [2]	IC50 [3]	IC50 [4]	IC50 [5]	viability, T/C [6]	viability, T/C [7]	viability, T/C [8]	viability, T/C [9]	viability, T/C [10]	viability, T/C [11]	viability, T/C [12]	viability, T/C [13]	viability, T/C [14]	viability, T/C [15]	viability, T/C [16]	viability, T/C [17]	viability, T/C [18]	viability, T/C [19]	viability, T/C [20]	further results
CC(C)n1c(=O)n(C)c2cnc3cc(F)c(-c4ccc(OCCCN5CCCCC5)nc4)cc3c21 + Cn1nnc2c(C(N)=O)ncn2c1=O	6.4 µM	6.7 µM	6.54 µM	5.86 µM	9.48 µM	100%	97.4%	97.2%	89.6%	72.7%	35.8%	102%	102%	98%	93.7%	70.1%	39.2%	103%	107%	97.4%	viability, T/C [21]: 97.4%; viability, T/C [22]: 73.7%; viability, T/C [23]: 36%; viability, T/C [24]: 108%; viability, T/C [25]: 96%; viability, T/C [26]: 92.4%; viability, T/C [27]: 89.9%; viability, T/C [28]: 70.9%; viability, T/C [29]: 32.4%; viability, T/C [30]: 88.5%; viability, T/C [31]: 92.9%; viability, T/C [32]: 86.5%; viability, T/C [33]: 76.1%; viability, T/C [34]: 69.6%; viability, T/C [35]: 48.4%
CC[C@@]1(O)C(=O)OCc2c1cc1n(c2=O)Cc2cc3c(CN(C)C)c(O)ccc3nc2-1	–	–	–	–	–	–	–	–	–	–	–	–	–	–	–	–	–	–	–	–	viability, T/C (compound 0.003 µM): 85.6% [middle of 10 runs]; viability, T/C (compound 0.03 µM): 9.85% [middle of 10 runs]; viability, T/C (compound 0.0949 µM): 8.03% [middle of 9 runs]; viability, T/C (compound 0.3 µM): 5.25% [middle of 10 runs]; IC50 (compound alone, run of 12/02/2019): 8.2 nM [middle of 5 runs]; IC50 (compound alone, run of 12/12/2019): 11.6 nM [middle of 5 runs]
COc1ccc([C@@H](O)c2cc(-c3ncnc4cc(N5CCOCC5)ccc34)c(F)cc2Cl)nn1 + Cn1nnc2c(C(N)=O)ncn2c1=O	2.23 µM	1.92 µM	1.91 µM	1.88 µM	1.06 µM	102%	95.8%	90.8%	64.5%	44%	13.5%	100%	94.3%	88.7%	63.5%	39.4%	16.8%	94%	92.1%	89.6%	viability, T/C [21]: 66.6%; viability, T/C [22]: 36.8%; viability, T/C [23]: 15.9%; viability, T/C [24]: 98%; viability, T/C [25]: 98.2%; viability, T/C [26]: 81.5%; viability, T/C [27]: 64.8%; viability, T/C [28]: 38.5%; viability, T/C [29]: 20.6%; viability, T/C [30]: 83.2%; viability, T/C [31]: 83%; viability, T/C [32]: 70.7%; viability, T/C [33]: 48%; viability, T/C [34]: 32.3%; viability, T/C [35]: 12.8%

From PubChem BioAssay AID1845204 (Molecular Pharmacology Branch, DTP, NCI, 2023)
